Tests used:
[1] = test system: etomidate-induced memory deficits in mice; assay: Novel object recognition task, prevention paradigm; type: in vivo, mouse; settings: Etom 8 mg/kg i.p., NOR next day
Excerpt: The novel object recognition task involves the presentation of two identical objects for visual inspection (in the case of humans and non-human primates) and exploration in the case of rodents. After a delay, one of the original objects is presented together with a new (novel) object. Humans and animals normally spend time more time looking at (or in the case of mice, exploring) the novel object. Indeed, the test relies on the innate preference of humans and animals for novelty. The inspection or interaction time differs only if the familiar object is recognized. Otherwise, the subject spends an equal amount of time inspecting both objects. […]
In the present study, mice were handled two times a day, 5 min each before start of behavioral experiments. Object recognition was assessed in a circle opaque chamber with the diameter of 38.5 cm in a regular lit room. […] Movement and interaction with the objects was recorded with a video camera that was mounted above the chamber. The exploratory behavior and mouse activity was analyzed blindly by a person with a good training and the software EthoVision, XT v11.5 provided by the Noldus Information Tech Inc., (Leesburg VA, USA). […] Memory was assessed by measuring the novelty preference ratio (i.e., the ratio of time spent exploring the novel object to the time spent exploring both objects). […]

radixin = assay: Western blot of radixin phosphorylation in hippocampus of treated mice; type: in vivo, mouse; settings: etomidate 8 mg/kg, i.p., hippocampi 24 hrs later
Procedure: We next asked whether injection of inhibitory peptide, when administered to mice in vivo by I.P. injection, reduced the level of α5GABAA receptors expressed in the hippocampus. To test whether the peptide reduces α5GABAA receptor cell-surface expression in vivo, we took advantage of a mouse model that we developed recently (Zurek, et al., 2014), in which up-regulation of α5GABAA receptor cell surface expression causes memory deficits. Adult mice (22-25 g) were treated with etomidate (8 mg/kg, i.p.), and sacrificed 24 hrs later according to a protocol approved by the Animal Care Committee of the University of Toronto. The hippocampi were collected and subject to experiments. We first measured the level of radixin phosphorylation, because radixin phosphorylation is required for the recruitment of α5GABAA receptors to extrasynaptic sites of the neurons (Loebrich et al., 2006; Hausrat et al., 2015). The antibody against threonine at 564 of radixin, which is specific for radixin phosphorylation involving α5GABAA receptor extra-synaptic trafficking, was used for these studies (Choii et al., 2015; Hausrat et al., 2015). […] We next examined whether the inhibitory peptide prevented α5GABAA receptor from trafficking to surface membrane in vivo by studying ex vivo brain slices. […]

[2] = test system: GABAA receptor-mediated tonic current in hippocampal neurons; assay: Whole-cell voltage-clamp recordings of tonic current in astrocyte-neuron co-cultures; type: cell-based, mouse; settings: for tonic current: neurons grown in co-cultures
[3] = test system: α5GABAA receptor cell-surface expression; assay: Receptor cell-surface ELISA assay in cultured hippocampal neurons; type: cell-based, mouse; settings: for etomidate-induced increase in α5GABAA receptor surface expression: peptide 2 μM, 24 hrs, astrocyte-conditioned medium (etomidate 1 μM, 1 hr)
Procedure: This experimental cell culture model was used to test the effects of the inhibitory peptide on an overexpression of α5GABAA receptors on the surface of neurons. The medium from astrocytes that were treated with etomidate (1 μM, 1 hr) (conditioned medium) was collected, and the medium bathing cultured hippocampal neurons was exchanged with the astrocyte-conditioned medium. The cells were incubated at 37° C., 5% CO2 with the peptide or scramble peptide (2 μM). After 24 hrs incubation, the cells were used for receptor cell-surface ELISA assay. The cells were fixed in 4% paraformaldehyde for 20 min in the presence (permeabilized) or absence (non-permeabilized) of 1% Triton-X100. The cells, after 3 times wash with cold PBS and blocked with 5% bovine album solution, were incubated with a α5 antibody (Santa Cruz Biotech Inc.) at 4° C. overnight. The next day the cells were thoroughly washed with PBS and incubated with the horseradish peroxidase (HRP)-conjugated secondary antibody for 2 hrs. With HRP substrate added and color developed in the medium, the results were determined with microplate reader.
The cell surface expression of α5 subunit was presented as the ratio of the colorimetric reading under non-permeabilized conditions to those permeabilized conditions. Consistent with the previous report, etomidate increases α5GABAA receptor surface expression. This increase was blocked by the specific peptide, but not the scramble peptide (FIG. 6A).
For astrocyte culture, cortical astrocytes were isolated from embryonic day 18 (E18) mouse embryos. Cells were allowed to grow to confluence in MEM and 10% fetal bovine serum (FBS; Life Technologies, Grand Island, New York) for 14 d. Cells were then enzymatically dissociated with trypsin-EDTA (0.05%; Life Technologies, Grand Island, New York), and passaged three times to obtain a nearly pure astrocytic culture. Astrocytes were then plated at a density of 25,000 cells per dish. […]

[4] = target: T1, α5 subunit-radixin interaction (Mus musculus, UniProt P26043); assay: Co-immunoprecipitation and Western blot of α5 subunit-radixin coupling in hippocampal tissue lysate; type: binding; settings: 20 μM peptide without TAT sequence, one hour incubation
T1 construct: tissue lysate prepared from the hippocampus of adult mice; from tissue; host or cells: hippocampus of adult mice (C57BL/6J×SvEv)
T1 sequence (P26043 whole entry): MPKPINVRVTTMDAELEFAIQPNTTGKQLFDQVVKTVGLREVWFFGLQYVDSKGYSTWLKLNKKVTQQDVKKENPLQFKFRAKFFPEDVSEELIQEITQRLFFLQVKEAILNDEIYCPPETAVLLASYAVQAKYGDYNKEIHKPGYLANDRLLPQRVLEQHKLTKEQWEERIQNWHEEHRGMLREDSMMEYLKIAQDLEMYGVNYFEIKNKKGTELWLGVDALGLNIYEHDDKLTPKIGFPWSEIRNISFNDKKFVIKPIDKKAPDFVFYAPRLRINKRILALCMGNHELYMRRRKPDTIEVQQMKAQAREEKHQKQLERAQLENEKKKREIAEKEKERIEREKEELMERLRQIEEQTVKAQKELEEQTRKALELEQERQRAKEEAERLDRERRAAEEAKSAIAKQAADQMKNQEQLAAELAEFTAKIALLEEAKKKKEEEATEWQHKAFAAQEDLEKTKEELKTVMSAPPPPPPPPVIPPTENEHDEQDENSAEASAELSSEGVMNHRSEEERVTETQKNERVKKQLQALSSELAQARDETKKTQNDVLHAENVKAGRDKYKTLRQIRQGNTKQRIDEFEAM
Procedure: The experiments used tissue lysate prepared from the hippocampus of adult mice (C57BL/6J×SvEv, 2-4 month old, male). Hippocampal tissue was homogenized in ice-cold RIPA buffer (20 mM Tris-HCL, pH 7.5, 150 mM NaCl, 1 mM Na2EDTA, 1 mM EGTA, 1% NP-40, 1% sodium deoxycholate, 2.5 mM sodium pyrophosphate, 1 mM β-glycerophosphate) supplemented with 1 mM sodium orthovanadate and 1% protease inhibitor cocktail and 1% phosphatase inhibitor cocktail (Roche Diagnostics, GmbH, Manheim Germany). The tissue lysate was subsequently spun at 14,000 rpm for 30 min with the Microfuge 22R Centrifuge (Beckman Coulter™, Brea, California, US). The supernatant was collected and frozen at −20 C°. The next day, the supernatant, after thawing, was re-centrifuged at 14,000 rpm for another 30 min to clear the potential undissolved or pellet substances. After spinning twice, the supernatant was collected for subsequent experiments.
One hour following the incubation, the antibodies (2-4 μg) against either α5 subunit (cat #sc—31417, Santa Cruz Biotechnology, Inc., 10410 Finnell St. Dallas, TX, 75220, USA) or radixin (cat #ab91312, Abcam Inc., c/o 913860, PO Box 4090 Stn A, Toronto, ON M5W 0E9), or 4 μg of non-specific IgG protein (cat #sc—2028, Santa Cruz Biotechnology, Inc., 10410 Finnell St. Dallas, TX, 75220, USA), were added to the lysate solution. […]

In the case of `CCOC(=O)c1cncn1[C@H](C)c1ccccc1` [etomidate], the “preference for the novel object (NOR)” value [1] is reported as “showed no preference”, the “radixin phosphorylation (pThr564)” value (radixin) is reported as “increases” and the “total radixin protein level” value (radixin) is reported as “does not alter”. The “amplitude of the tonic current” value ([2]; etomidate 1 μM, 1 h, measured 24 h after treatment) was “caused an increase” and the “α5GABAA receptor surface expression” value ([3]; medium from astrocytes treated with etomidate 1 μM, 1 hr, 24 hrs incubation) was “increases”.

With `FC(F)OC(Cl)C(F)(F)F` (stereo not shown) [isoflurane] the tonic current ([2]; ISO, 250 μM) was “persistent increase”.

`Cc1ncc2n1-c1ccc(Cl)cc1C(c1ccccc1F)=NC2` [midazolam] was tested, and the tonic current ([2]; MDZ, 200 nM) was “persistent increase”.

In the case of `CC(C)c1cccc(C(C)C)c1O` [propofol], the tonic current ([2]; Prop, 3 μM) is reported as “persistent increase”.

For `FCOC(C(F)(F)F)C(F)(F)F` [sevoflurane], the tonic current ([2]; SEVO, 266 μM) was “persistent increase”.

In the case of “AWDGKKAL (listed as Homo sapiens) [Peptide C8, N-terminal truncated peptide, positions 350-357]”, the “etomidate-induced increase in α5GABAA receptor surface expression” value (shortened to “etomidate-induced increase”) [3] is reported as “prevented”.

“DGKKAL (listed as Homo sapiens) [Peptide C6, N-terminal truncated peptide, positions 352-357]” was tested, and the “etomidate-induced increase” value [3] was “did not”.

With “GWAWDGKKAL (listed as Homo sapiens) [Peptide C10, N-terminal truncated peptide, positions 348-357]” the “etomidate-induced increase” value [3] was “prevented”.

“KKAL (listed as Homo sapiens) [Peptide C4, N-terminal truncated peptide, positions 354-357]” was tested, and the “etomidate-induced increase” value [3] was “did not”.

For “KRGWAWDGKKAL (listed as Homo sapiens) [α5pΔN4]”, the “etomidate-induced increase” value [3] was “retains the inhibitory function”.

For “NYFTKRGWAWDG (listed as Homo sapiens) [α5pΔC4]”, the “etomidate-induced increase” value [3] was “lost the inhibitory function”.

“TYFGRKNALWKAWKGD (Scramble peptide) [reference compound]” was tested, and the “association between α5 subunit and radixin” value [4] was “did not reduce this association”.
